System: Human umbilical vein endothelial cells (HUVECs)
Assay: Gene expression array and pathway analysis, HUVECs
Format: cell-based
Experimental: For each cell line, n=8×25 cm^2 culture flasks were set up. Two flasks were harvested for each cell type on the day of treatment (24 hours after seeding). This represents the Day0 time point. From the remaining flasks, three flasks were treated with Control Medium and three were treated with Culture Medium (CM) containing LMW-DS to give a final concentration of 0.01 mg/ml. Cells from the treated flasks were collected after 48 hours. Therefore the collected data represent (a) untreated cells (Day0 Controls and Day2 Controls) and (b) cells treated with LMW-DS for 48 hours (Day2 LMW-DS treated).
25 cm^2 flasks were coated by adding 2 ml per flask of a solution of 50 μg/ml poly-d-lysine in Hank's balanced salt solution (HBSS) and incubating overnight at 37° C. in the dark. Flasks were washed with cell culture water and air-dried for 30 min in the dark. Flasks were coated by adding 1 ml per flask of a solution of 25 μg/ml laminin in phosphate-buffered saline (PBS) and incubating for 2 hour at 37° C. in the dark. The laminin flasks were washed with PBS three times before plating cells.
Medium 200+Large Vessel Endothelial Supplement (M200+LVES) additive (1:50) was prepared and pre-warmed to 37° C. Cells were thawed in a 37° C. water bath for no longer than 2 min and gently transferred into a 50 ml tube containing 20 ml Dulbecco's Modified Eagle Medium, Nutrient Mixture F-12 (DMEM-F12). The cell suspension was mixed by inverting the tube carefully twice. Cells were spun at 400×g for 10 minutes. Supernatant removed and cells were resuspended in 10 ml of culture media (M200+LVES additive).
Cells were counted with the Cellometer. 1,000,000 cells/flask were seeded in 25 cm^2 flasks (n=8) and medium was topped up to a total of 5 ml per flask. Cells were incubated at 37° C. with 5% CO2. Cells were allowed to settle for 24 hours before LMW-DS treatment.
LMW-DS was provided at a stock concentration of 20 mg/ml and was kept in a temperature monitored refrigerator at 4° C. A fresh […]LMW-DS stock (1.0 mg/ml) was prepared in sterile DMEM-F12. The concentrated drug stock was sterile filtered and added to the respective culture media (19.6 ml CM and 0.4 ml LMW-DS stock solution). The Control was made using 19.6 ml CM and 0.4 ml of DMEM-F12. LMW-DS and CM were added to the respective flasks (5 ml each) to reach the 0.01 mg/ml concentration of LMW-DS in each dish with a total of 10 ml CM each.
CM was aspirated into a clean and labelled 15 ml Falcon tube. The flasks (without culture medium) were placed into the −80° C. freezer for 30 minutes. The CM in the Falcon tubes were spun at 3000×g for 5 minutes. Supernatant was removed and the small pellet was re-suspended in 2.5 ml Trizol:Water (4:1) solution at room temperature (RT, […]).
Two aliquots of 1 ml lysate was removed from each sample and 200 μl of chloroform was added to each (0.2 ml of chloroform per 1 ml of TRIzol Reagent used during the cell lysis step) and the tube was shaken vigorously. Samples were stored at RT for 2-3 minutes and subsequently centrifuged at 12,000×g for 15 minutes at 4° C.
The expression data were downloaded into separate files for each cell line. The ‘Background corrected’ expression is the data from the “gProcessedSignal” of the arrays that is the result of the background signal extracted from the actual signal of the relevant probe. This is the most often used variable in array analysis. The background corrected signal was log 2 transformed for all samples for statistical analysis. To reduce the false discovery rate in the samples, the signals that were below ‘expression level’ were removed. The ‘below expression’ level was set at 5 for the log 2 transformed expression values.
Based on the expression pattern of the Control probes on each array it was decided to carry out Median Centering for all arrays before analysis to reduce the variability of the results. […]

## low molecular weight dextran sulfate [LMW-DS]
0.01 mg/ml, 48 h
  aggregate effect on adhesion and angiogenesis (1 molecule, ADAM11): adhesion would not be affected but angiogenesis would be activated
  differential regulation of the 197 genes regulating cell attachment: none are differentially regulated
  modulation of the effects of oxidative stress on mitochondria: no significant modulation
  number of genes differentially expressed, D0 control vs D2 LMW-DS treated: 1779 genes
  number of genes differentially expressed, D2 control vs D2 LMW-DS treated: 76 genes
  number of genes: abolished nutrient effect / no effect: 67
  number of genes: abolished nutrient effect / significant downregulation: 4
  number of genes: abolished nutrient effect / significant upregulation: 11
  number of genes: abolished nutrient effect / total: 82
  number of genes: enhanced response to nutrients / significant downregulation: 120
  number of genes: enhanced response to nutrients / significant upregulation: 229
  number of genes: enhanced response to nutrients / total: 349
  number of genes: not different from control / significant downregulation: 167
  number of genes: not different from control / significant upregulation: 1326
  number of genes: not different from control / total: 1493
  number of genes: total / no effect: 67
  number of genes: total / significant downregulation: 291
  number of genes: total / significant upregulation: 1566
  number of genes: total / total: 1924
D2 LMW-DS treatment
  upstream regulator HGF: activation z-score: 3.194
  upstream regulator HGF: predicted activation state relative D2 control: Activated relative to control
  upstream regulator TGFβ1: activation z-score: 1.429
  upstream regulator TGFβ1: predicted activation state relative D2 control: Activated relative to control
  upstream regulator VEGF: activation z-score: 3.432
  upstream regulator VEGF: predicted activation state relative D2 control: Activated relative to control
